# Entries after “also recorded” stand apart in the source; their conditions may differ.
# Columns and labels:
# UPR = assay: RNA-Seq analysis of UPR branch activation in P cells; assay type: cell-based, human; details: BRD-4780 1 μM, THP 100 nM
# Procedure: For RNA-seq experiments, N and P cells were plated in 12-well plates at 200,000 cells/well. Subsequently, 1 μM of BRD-4780 or DMSO were applied for 24 hr followed by 12 hr exposure to 100 nM of thapsigargin (THP) or DMSO for control. At the end of the experiment, RNA was extracted from treated cells and sequencing was performed as described below.
# UPR branch activation analysis is presented as boxplots. Each box of the boxplot consists of genes comprising an individual UPR branch (Adamson et al., 2016). The expression of each gene in the group is plotted as mean of the scaled expression profiles obtained from three replicates.
# MUC1-fs = MUC1-fs immunofluorescence high-content imaging assay in P cells; assay type: cell-based, human; details: read-out: EC50 for removal of MUC1-fs (IF); P cells treated 48 hours
# Procedure: Cells grown on CellCarrier-96 or -384 well Ultra microplates (PerkinElmer) were fixed 10 min in PBS containing 4% PFA (Electron Microscopy Sciences), permeabilized 15 min in 0.5% Triton X100 (X100-100ML, Sigma-Aldrich), blocked for 1 hr in blocking reagent (100 mM Tris HCL pH8; 150 mM NaCL; 5 g/L Blocking Reagent [11096176001, Roche]) and treated for 1 hr with primary antibodies diluted in blocking reagent (1:500, monoclonal Fab-A-VSH anti-fsMUC1, AbD22655.2, Bio-Rad; 1:2000, monoclonal Mouse anti-MUC1 (CD227), 60137, Stemcell Technologies; 1:200, polyclonal, Mouse anti-GM130, ab169276, Abcam; 1:100, polyclonal, Rabbit anti-TMED9, 216201-AP, Proteintech; 1:800, polyclonal, Rabbit anti-SEC31A, 17913-1-AP, Proteintech; 1:400, monoclonal, Rabbit anti-EEA1 (C45B10), 3288S, Cell signaling technology; 1:100, polyclonal, Rabbit anti-ERGIC-53, E1031, Sigma-Aldrich; 1:400, monoclonal, Mouse anti-LAMP1 (D401S), 15665, Cell signaling technology; 1:1000, polyclonal, Rabbit anti-Calnexin, ab22595, Abcam; 1:2000, monoclonal, Rabbit anti-GM130 (D6B1) XP, 12480, Cell signaling technology; 1:200, monoclonal, Rabbit anti TNG46, ab50595, Abcam; 1:100, monoclonal, Rabbit anti-Rab7 (D95F2) XP, 9367, Cell signaling technology; 1:100, monoclonal, Rabbit anti-Rab11 (D4F5) XP, 5589, Cell signaling technology). Fixed, stained cells were washed three times in PBS and incubated for 1 hr with secondary antibodies in blocking solution (1:500, Alexa Fluor 488® Goat anti-Mouse IgG, A-11029, Thermo Fisher Scientific®; 1:500, Alexa Fluor 647® F(ab′)2-Goat anti-Rabbit IgG, A21246, Thermo Fisher Scientific®; 1:2000, Hoechst 33342, H3570, Thermo Fisher Scientific®), then washed three times in PBS and imaged.
# Cell nuclei were first identified using Hoechst staining, and cell number was calculated. Cytoplasmic regions were then detected around each nucleus based on combined channels. The cells from the edge of the field were eliminated from the analysis. For the quantification of protein abundance, the total signal intensity value for each antibody was calculated separately in the cell cytoplasm and the average signal per cell was calculated for each well.
# P cells were seeded 24 hr prior to compound treatment at a density of 12,000 cells/well in 384 well Cell Carrier Ultra plates (6057308, Perkin Elmer), pre-coated with 0.25 mg/mL Synthemax II SC Substrate (3535, Corning). Compounds of the repurposing library set (Corsello et al., 2017) were used at 5 doses (35, 3.5, 0.35, 0.035 and 0.0035 μM) for the primary screen and 10 doses (16, 5.6, 1.8, 0.6, 0.21, 0.07, 0.02, 0.008, 0.002 and 0.0008 μM) for the following screens. The compounds, in two replicates, were transferred from compound source plates to the cell plates using the HighRes Pin Tool. […] After 48 hr incubation, cells were fixed for 20 min in 4% PFA (Electron Microscopy Sciences) in PBS, washed twice, then permeabilized (10 min) with 0.5% Triton-X100 (X100-100ML, Sigma-Aldrich) in PBS and washed once more. Cells were blocked for 10 min at RT with Blocking solution (100 mM Tris HCL pH8; 150 mM NaCL; 5 g/L Blocking Reagent [11096176001, Roche]), then incubated 90 min at RT with one of the following primary antibodies in Roche Blocking solution: 1:500, monoclonal Fab-A-VSH anti-MUC1-fs, AbD22655.2, Bio-Rad; 1:2000, monoclonal mouse anti-MUC1 (214D4), 05-652-KC, Millipore; 1:1000, monoclonal, Rabbit anti-GM130 (D6B1) XP, 12480, Cell signaling technology. […]
# [1] = In vitro toxicity (cell number / viability); assay type: cell-based; details: any concentration tested
# Excerpt: Image acquisition and analysis was done as described elsewhere herein. Following image analysis, three parameters were selected, i) MUC1-fs and ii) MUC1-wt total cytoplasm intensity (averaged per cell) and iii) cell number as was detected by Hoechst 33342 stained nuclei. The levels of MUC1-fs and MUC1-wt found following DMSO and JQ1 were defined as 0 and −100% activity, respectively. […] Cell number was normalized to DMSO control. All compound concentrations showing >−20% reduction in cell number were masked out. Based on ±3 median absolute deviation value (FIG. 10A), hit calling criteria for the primary and secondary screens were chosen as MUC1-fs reduction >30% in two or more consecutive concentrations for both replicates. For the secondary screen, dose response curves were generated for each parameter using Genedata Screener (Genedata AG), and positive hits for the profiling screens were selected based on the compounds activity for reducing MUC1-fs and lack of toxicity. MUC1-fs specificity (according to MUC1 fs/wt ratio) was used as an additional positive criterion for selection.
# huntingtin (97 polyQ) = assay: Huntingtin-GFP (97 polyQ) accumulation in HEK cells; assay type: cell-based, human; details: 10 μM, 72 hours
# Procedure: HEK293T cells were transfected with Huntingtin 97Q repeats fused to GFP and selected in 0.8 mg/mL G418 (Thermo Fisher Scientific®).
# For GFP-Huntingtin experiments (FIGS. 15G and 15H), GFP signal in each cell was calculated using the “spot” identification feature, and total spot intensity for single cells was calculated and averaged for each well.
# HEK293T stably expressing huntingtin 97Q-GFP were treated with 10 μM of BRD-4780 or vehicle DMSO, then monitored for GFP intensity by live cell imaging.
smiles,measurement,setting,value
"CC(C)[C@@H]1[C@H]2CC[C@H](C2)[C@H]1N (racemic) [BRD-4780, 2-endo-amino-3-exo-isopropylbicyclo[2.2.1]heptane]",UPR activation,UPR,significantly reduced UPR activation
same,EC50,MUC1-fs,143 nM
same,in vitro toxicity,[1],no overt toxicity at any concentration tested
same,intracellular accumulation of GFP-tagged mutant huntingtin (97 polyQ),huntingtin (97 polyQ),did not reverse or diminish the intracellular accumulation; also recorded: no effect on mutant huntingtin

# Reference: US12023308B2, “Agents for reversing toxic proteinopathies” (THE BROAD INSTITUTE, INC., priority 2019, dated 2024)
